Where two headings read alike, the source gives them in different places.

This test has as its target T1, truncated human beta-secretase (residues 1-458, His6-tagged at the C-terminus) (Homo sapiens, UniProt P56817).
T1 construct: truncated human beta-secretase (residues 1-458, His6-tagged at the C-terminus); His6 (C); made in house; host or cells: insect cells D. melanogaster S2 (baculovirus expression system (so in the source))
The experiment in a line: BACE fluorescence quench assay. In kind it is biochemical.

Where [1] appears, read: in vitro enzyme activity, BACE fluorescence assay, pH 4.5, read-out: IC50.

T1 sequence (P56817 22-458): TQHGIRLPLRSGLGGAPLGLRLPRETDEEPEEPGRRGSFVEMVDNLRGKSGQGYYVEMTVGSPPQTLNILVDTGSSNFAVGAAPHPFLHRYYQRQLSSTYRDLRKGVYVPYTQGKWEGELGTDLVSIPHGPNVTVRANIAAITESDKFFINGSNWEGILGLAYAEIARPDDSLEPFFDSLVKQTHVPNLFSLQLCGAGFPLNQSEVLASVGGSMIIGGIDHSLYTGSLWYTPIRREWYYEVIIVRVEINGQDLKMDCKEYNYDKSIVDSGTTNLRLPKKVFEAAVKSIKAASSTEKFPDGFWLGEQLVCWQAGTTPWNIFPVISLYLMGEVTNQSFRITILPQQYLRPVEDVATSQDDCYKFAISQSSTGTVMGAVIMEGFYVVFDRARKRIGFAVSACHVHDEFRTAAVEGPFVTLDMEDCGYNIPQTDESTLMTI

Consider `CN1OC2(CC(c3ccccc3)Oc3cc(F)c(-c4cccnc4F)cc32)N=C1N` (stereo not drawn) [Compound 104, 7-fluoro-6-(2-fluoropyridin-3-yl)-2′-methyl-2-phenyl-2′H-spiro[chroman-4,5′-[1,2,4]oxadiazol]-3′-amine], for which the half-inhibitory concentration (IC50) under setting [1] lay within 5000 to 10000 nM.

For the molecule `CN1OC2(CC(C3CCOCC3)Oc3ccc(-c4cccc(C#N)c4)cc32)N=C1N` (stereo not drawn) [Compound 88, 3-(3′-amino-2′-methyl-2-(tetrahydro-2H-pyran-4-yl)-2′H-spiro[chroman-4,5′-[1,2,4]-oxadiazole]-6-yl)benzonitrile], the half-inhibitory concentration (IC50) under setting [1] fell in the range of 100 to 500 nM.

On to `CN1OC2(CC3(CCCC4CCCCC43)Oc3ccc(-c4cccc(C#N)c4)cc32)N=C1N` (stereo not drawn) [Compound 443], for which, under setting [1], the concentration for half-maximal inhibition (IC50) was 5000 to 10000 nM.

As to `CN1OC2(CC(C3CCOC(C)(C)C3)Oc3ccc(-c4cc(F)cc(F)c4)cc32)N=C1N` (stereo not drawn) [Compound 339], the half-maximal inhibitory concentration (IC50) under setting [1] lay in the range of 100 to 500 nM.

Consider `CN1C(=O)C2(CC(c3cccc(F)c3F)Oc3ccc(Br)cc32)N=C1N` (stereo not drawn) [Compound 42], for which, under setting [1], the IC50 is 5000 to 10000 nM.

On to `CN1C(=O)C2(CC(c3ccccc3)Oc3ccc(-c4cccc(C5CC5)c4)cc32)N=C1N` (stereo not drawn) [Compound 11, 2′-amino-6-(3-cyclopropylphenyl)-1′-methyl-2-phenylspiro[chroman-4,4′-imidazol]-5′(1′H)-one], for which the half-maximal inhibitory concentration (IC50) under setting [1] was 100 to 500 nM.

In the case of `CC(C)=CC(CCO)C1CC2(N=C(N)N(C)O2)c2cc(-c3cccc(C#N)c3F)ccc2O1` (stereo not drawn) [Compound 430], the IC50 under setting [1] lay within 1000 to 5000 nM.

`CN1O[C@@]2(C[C@]3(CCC(C(C)(C)C)C3)Oc3ccc(-c4cccc(C#N)c4)cc32)N=C1N` (stereo partly drawn) [Compound 127b]: the IC50 under setting [1] lay within 5000 to 10000 nM.

Turning to `CC(C)=CC(CCO)C1CC2(N=C(N)N(C)O2)c2cc(-c3cc(C#N)ccc3C)ccc2O1` (stereo not drawn) [Compound 425], the half-maximal inhibitory concentration (IC50) under setting [1] lay in the range of 1000 to 5000 nM.

For `CN1OC2(C[C@H](C3CCCOC3)Oc3ccc(-c4cccnc4F)cc32)N=C1N` (stereo partly drawn) [Compound 89b], the IC50 under setting [1] was in the range of 1000 to 5000 nM.

Regarding `CN1C(=O)C2(CC(C3CCOC(C)(C)C3)Oc3ccc(-c4cc(F)ccc4F)cc32)N=C1N` (stereo not drawn) [Compound 300], the concentration for half-maximal inhibition (IC50) under setting [1] lay within 100 to 500 nM.

Take `CN1OC2(C[C@H]([C@@H]3CCOC(C)(C)C3)Oc3ccc(-c4ccc(F)c(F)c4)cc32)N=C1N` (stereo partly drawn) [Compound 362]: under setting [1], the IC50 is 500 to 1000 nM.

Consider `CN1C(=O)C2(CC3(CCCOC3)Oc3ccc(-c4cccc(F)c4)cc32)N=C1N` (stereo not drawn) [Compound 347], for which, under setting [1], the half-inhibitory concentration (IC50) was in the range of 500 to 1000 nM.

Take `CC(C)=CC(CCO)C1CC2(N=C(N)N(C)O2)c2cc(-c3ccc(F)c(F)c3)ccc2O1` (stereo not drawn) [Compound 456]: the IC50 under setting [1] lay in the range of 10000 to 50000 nM.

With `CN1C(=O)[C@@]2(C[C@@]3(CCCOC3)Oc3ccc(-c4cccc(C#N)n4)cc32)N=C1N` [Compound 446], the IC50 under setting [1] is 5000 to 10000 nM.

Turning to `CN1C(=O)C2(CC3(CCCCC3)Oc3ccc(-c4cccc(C#N)c4)cc32)N=C1N` (stereo not drawn) [Compound 76], the IC50 under setting [1] fell in the range of 100 to 500 nM.

As to `CN1C(=O)C2(CC(c3cccc(Cl)c3)Oc3ccc(Br)cc32)N=C1N` (stereo not drawn) [Compound 34, 2′-amino-6-bromo-2-(3-chlorophenyl)-1′-methylspiro[chroman-4,4′-imidazol]-5′(1′H)-one], under setting [1], the IC50 was 1000 to 5000 nM.

`CC(=O)Nc1cccc(-c2ccc3c(c2)C2(CC(c4ccccc4)O3)N=C(N)N(C)C2=O)c1` (stereo not drawn) [Compound 41, N-(3-(2′-amino-1′-methyl-5′-oxo-2-phenyl-1′,5′-dihydrospiro[chroman-4,4′-imidazole]-6-yl)phenyl)acetamide] came in with an IC50 of 1000 to 5000 nM.

Regarding `CN1C(=O)[C@@]2(C[C@@H](c3ccc(F)cc3)Oc3ccc(-c4cccc(C#N)c4)cc32)N=C1N` [Compound 19a, 3-((2S,4S)-2′-amino-2-(4-fluorophenyl)-1′-methyl-5′-oxo-1′,5′-dihydrospiro[chroman-4,4′-imidazole]-6-yl)benzonitrile], under setting [1], the IC50 fell in the range of 500 to 1000 nM.

Regarding `CN1OC2(CC(C3CCOC(C)(C)C3)Oc3ccc(-c4cccc(F)c4)cc32)N=C1N` (stereo not drawn) [Compound 343], under setting [1], the 50% inhibitory concentration (IC50) was in the range of 100 to 500 nM.

Take `CN1O[C@@]2(C[C@@]3(CCC(C(C)(C)C)C3)Oc3ccc(-c4cccc(C#N)c4)cc32)N=C1N` (stereo partly drawn) [Compound 127a]: the half-inhibitory concentration (IC50) under setting [1] lay within 5000 to 10000 nM.

As to `CN1C(=O)C2(C[C@]3(CCCOC3)Oc3ccc(-c4cccc(Br)c4)cc32)N=C1N` (stereo partly drawn) [Compound 318], under setting [1], the concentration for half-maximal inhibition (IC50) is 100 to 500 nM.

Regarding `CN1C(=O)[C@@]2(C[C@@]3(CCCOC3)Oc3ccc(-c4cc(F)cc(C#N)c4)cc32)N=C1N` [Compound 356], the IC50 under setting [1] lay in the range of 500 to 1000 nM.

Turning to `Cc1ccc2c(c1)C1(CC(c3ccccc3)O2)N=C(N)N(C)C1=O` (stereo not drawn) [Compound 64, 2′-amino-1′,6-dimethyl-2-phenylspiro[chroman-4,4′-imidizol]-5′(1′H)-one], under setting [1], the IC50 lay in the range of 10000 to 50000 nM.

Regarding `CN1OC2(CC(C3CCCOC3)Oc3ccc(-c4cc(F)cc(C#N)c4)cc32)N=C1N` (stereo not drawn) [Compound 86], under setting [1], the half-inhibitory concentration (IC50) is 1 to 100 nM.

Turning to `CN1C(=O)C2(CC(c3ccccc3)Oc3ccc(-c4cc(N)cc(C#N)c4)cc32)N=C1N` (stereo not drawn) [Compound 17, 3-amino-5-(2′-amino-1′-methyl-5′-oxo-2-phenyl-1′,5′-dihydrospiro[chroman-4,4′-imidazole]-6-yl)benzonitrile], under setting [1], the concentration for half-maximal inhibition (IC50) is 500 to 1000 nM.

On to `CN1OC2(CC(c3cccnc3)Oc3ccc(-c4cccc(C#N)c4)cc32)N=C1N` (stereo not drawn) [Compound 95, 3-(3′-amino-2′-methyl-2-(pyridine-3-yl)-2′H-spiro[chroman-4,5′-[1,2,4]-oxadiazole]-6-yl)benzonitrile], for which, under setting [1], the IC50 was in the range of 1000 to 5000 nM.

For the molecule `CN1C(=O)C2(CC(c3ccc(C(F)(F)F)cc3)Oc3ccc(-c4cccc(C#N)c4)cc32)N=C1N` (stereo not drawn) [Compound 16], under setting [1], the IC50 fell in the range of 500 to 1000 nM.

In turn, `CN1C(=O)C2(CC(c3ccccc3)Oc3ccc(-c4ccc(F)c(C#N)c4)cc32)N=C1N` (stereo not drawn) [Compound 4, 5-(2′-amino-1′-methyl-5′-oxo-2-phenyl-1′,5′-dihydrospiro[chroman-4,4′-imidazole]-6-yl)-2-fluorobenzonitrile] yielded a half-inhibitory concentration (IC50) of 100 to 500 nM.

On to `CN1C(=O)C2(CC(c3ccccc3)Oc3ccc(-c4cc(C#N)ccc4Cl)cc32)N=C1N` (stereo not drawn) [Compound 21, 3-(2′-amino-1′-methyl-5′-oxo-2-phenyl-1′,5′-dihydrospiro[chroman-4,4′-imidazole]-6-yl)-4-chlorobenzonitrile], for which the IC50 lay within 500 to 1000 nM.

In the case of `CN1O[C@]2(C[C@]3(CCCc4ccccc43)Oc3ccc(-c4cccc(C#N)c4)cc32)N=C1N` [Compound 374], under setting [1], the concentration for half-maximal inhibition (IC50) is 1000 to 5000 nM.

As for `Cc1ccc(C#N)cc1-c1ccc2c(c1)[C@]1(C[C@@]3(CCCOC3)O2)N=C(N)N(C)C1=O` [Compound 413], the IC50 under setting [1] fell in the range of 1000 to 5000 nM.

For `CN1C(=O)[C@@]2(C[C@]3(CCCOC3)Oc3ccc(-c4cccc(-n5cccc5)n4)cc32)N=C1N` [Compound 424], under setting [1], the IC50 lay within 1000 to 5000 nM.

Consider `CCCN1C(=O)[C@@]2(C[C@H](c3ccccc3)Oc3ccc(Br)cc32)N=C1N` [Compound 57a, (2R,4S)-2′-amino-6-bromo-2-phenyl-1′-propylspiro[chroman-4,4′-imidazol]-5′(1′H)-one], for which, under setting [1], the IC50 lay in the range of 10000 to 50000 nM.

For `CN1OC2(CC(c3ccccc3)Oc3ccc(-c4cccnc4)cc32)N=C1N` (stereo not drawn) [Compound 102, 2′-methyl-2-phenyl-6-(pyridin-3-yl)-2′H-spiro[chroman-4,5′-[1,2,4]oxadiazol]-3′-amine], the IC50 under setting [1] was in the range of 1000 to 5000 nM.

In the case of `CN1C(=O)C2(CC(C)(c3ccccc3)Oc3ccc(-c4cccc(C#N)c4)cc32)N=C1N` (stereo not drawn) [Compound 32, 3-(2′-amino-1′,2-dimethyl-5′-oxo-2-phenyl-1′,5′-dihydrospiro[chroman-4,4′-imidazole]-6-yl)benzonitrile], the 50% inhibitory concentration (IC50) under setting [1] fell in the range of 1000 to 5000 nM.

On to `CN1O[C@]2(C[C@@H](C[C@H]3CCCO3)Oc3ccc(-c4cccc(C#N)c4)cc32)N=C1N` (stereo in doubt) [Compound 360, 3-(3′-amino-2′-methyl-2-((tetrahydrofuran-2-yl)methyl)-2′H-spiro[chroman-4,5′-[1,2,4]oxadiazole]-6-yl)benzonitrile], for which the IC50 under setting [1] fell in the range of 500 to 1000 nM.

Turning to `CCOc1ccc(Cl)cc1-c1ccc2c(c1)[C@]1(C[C@]3(CCCOC3)O2)N=C(N)N(C)C1=O` [Compound 342], the 50% inhibitory concentration (IC50) under setting [1] is 100 to 500 nM.

Turning to `Cc1ccc(C#N)cc1-c1ccc2c(c1)C1(CC3(CCCOC3)O2)N=C(N)N(C)C1=O` (stereo not drawn) [Compound 368], under setting [1], the IC50 is 500 to 1000 nM.

For the molecule `CN1C(=O)[C@@]2(C[C@]3(CCCOC3)Oc3ccc(-c4cccc(C#N)n4)cc32)N=C1N` [Compound 410], the IC50 under setting [1] lay in the range of 1000 to 5000 nM.

For `CN1C(=O)C2(CC(c3ccccc3)Oc3ccc(-c4cccc(S(C)(=O)=O)c4)cc32)N=C1N` (stereo not drawn) [Compound 28, 2′-amino-1′-methyl-6-(3-(methylsulfonyl)phenyl)-2-phenylspiro[chroman-4,4′-imidazol]-5′(1′H)-one], the IC50 lay within 1000 to 5000 nM.

As to `CN1O[C@@]2(C[C@@]3(CCOC3)Oc3ccc(-c4cccc(C#N)c4)cc32)N=C1N` (relative stereo) [Compound 113a], the half-inhibitory concentration (IC50) under setting [1] fell in the range of 500 to 1000 nM.

Turning to `CC1CCC2(CC1)CC1(N=C(N)N(C)C1=O)c1cc(-c3cccc(C#N)c3)ccc1O2` (stereo not drawn) [Compound 75], the IC50 under setting [1] was 100 to 500 nM.

As for `CN1OC2(N=C1N)c1cc(-c3cccc(C#N)c3)ccc1OC1(CCCOC1)C2F` (stereo not drawn) [Compound 109], under setting [1], the 50% inhibitory concentration (IC50) is 100 to 500 nM.

Consider `CCCCNC(=O)c1cccc(-c2ccc3c(c2)[C@]2(C[C@H](c4ccccc4)O3)N=C(N)N(C)C2=O)c1` [Compound 55a, 3-((2R,4S)-2′-amino-1′-methyl-5′-oxo-2-phenyl-1′,5′-dihydrospiro[chroman-4,4′-imidazole]-6-yl)-N-butylbenzamide], for which the IC50 under setting [1] lay in the range of 10000 to 50000 nM.

Molecule `CN1C(=O)C2(CC(c3ccccc3)Oc3ccc(-c4cccc(NS(C)(=O)=O)c4)cc32)N=C1N` (stereo not drawn) [Compound 52, N-(3-(2′-amino-1′-methyl-5′-oxo-2-phenyl-1′,5′-dihydrospiro[chroman-4,4′-imidazole]-6-yl)phenyl)methanesulfonamide] gave an IC50 of 5000 to 10000 nM.

Take `CN1OC2(CC3(CCCOC3)Oc3ccc(Oc4ccccc4)cc32)N=C1N` (stereo not drawn) [Compound 130]: the IC50 under setting [1] lay within 10000 to 50000 nM.

For the molecule `CN1C(=O)[C@@]2(C[C@H](c3ccccc3)Oc3ccc(Br)cc32)N=C1N` (racemic) [Compound 44a, Trans-2′-amino-6-bromo-1′-methyl-2-phenylspiro[chroman-4,4′-imidazol]-5′(1′H)-one], the IC50 fell in the range of 5000 to 10000 nM.

One may read the IC50 as the concentration that inhibits the measured activity by half.

These data come from patent US8450308B2 (Vitae Pharmaceuticals, Inc., priority 2008, dated 2013).
